# Data taken from patent US20090018106A1, “INTRAVENOUS FORMULATIONS OF PYRIDOXAL 5'- PHOSPHATE AND METHOD OF PREPARATION” (Medicure International Inc., priority 2005, published 2009).
# Entries after “also recorded” stand apart in the source; their conditions may differ. Read-outs that look alike come from different tables or passages of the source.
# Tests used:
# Type in all cases: in vivo, human
# [1] = Safety and tolerability of single intravenous doses of P5P (Example Three)
# Protocol: Methodology—This was a single-blind, single-dose escalation, non-randomized, 4-phase, non-crossover study designed to evaluate the safety and tolerability of P5P intravenous injectable solution at doses of 1, 5, 10, 20 mg/kg, administered to four groups of healthy male and female subjects under fasting conditions and to estimate pharmacokinetic parameters of P5P.
# Safety data were collected for each subject throughout the study by recording vital signs, ECGs and reported adverse events.
# Primary Endpoint—Safety Parameters—The safety parameters investigated in this study were vital signs measurements (blood pressure, pulse rate), ECG measurements (1, 2 and 12 hours post-dose), platelet function testing, and severity and causality of adverse events experienced by subjects during the study period and laboratory assessments (clinical chemistry, hematology, urinalysis).
# [2] = Safety evaluation of once daily intravenous 10 mg/kg P5P for four days (Example Four)
# Protocol: Data sets analyzed—Six (6) healthy, adult non-smokers were administered intravenously a single daily dose of 10 mg/kb of P5P for four consecutive days and completed the study. In accordance with the study protocol, data from all subjects who completed the study were used for pharmacokinetic and statistical analysis.
# Safety Methods—The safety parameters investigated in this study were: adverse events, vital sign measurements, ECGs, physical examination and standard laboratory evaluations.
# [3] = Single intravenous dose escalation of P5P, plasma pharmacokinetics (Examples Two and Three); conditions: for Cmax / MRT / Tmax / Vd / clearance / AUC / half-life / AUC(0-t): both sexes, human, plasma; for Cmax / MRT / Tmax / Vd / clearance / AUC / half-life: iv; for AUC(0-t): read-out: AUC-T
# Protocol: A phase one clinical trial was conducted to compare the pharmacokinetics of intravenously administered P5P and orally administered P5P. The trial was a single dose escalation study.
# For intravenous administration, P5P was administered by bolus injection under fasting conditions. The following doses of P5P were studied: 1, 5, 10, and 20 mg/kg. 6 subjects were assigned to each dosage group.
# P5P, pyridoxal, and 4-pyridoxic acid were evaluated in both plasma and urine over a 24 hour interval following either intravenous or oral dosing. The results are set out below in Tables 2 and 3.
# Methodology—This was a single-blind, single-dose escalation, non-randomized, 4-phase, non-crossover study designed to evaluate the safety and […] subjects under fasting conditions and to estimate pharmacokinetic parameters of P5P.
# Subjects were assigned to one of the four groups (six subjects per group) under fasting conditions.
# Concentrations of pyridoxal-5′-phosphate (P5P) were measured from the plasma samples collected over a 24-bour interval after dosing in each phase.
# Pharmacokinetic parameters: AUCt, AUCinf, Cmax, Tmax, Kel, Thalf, Vd, CL, MRT and F were estimated based on pyridoxal-5′-phosphate (P5P) plasma levels for each subject that was in the final data set.
# The test product used was a P5P Intravenous Injectable Solution, 50 mg/ml, which was prepared in accordance with the methods of Example 1 (CanAm BioResearch Inc. Canada); Lot No.: LP1459: Manufacturing Date: 12/03. A single 1, 5, 10 or 20 mg/kg dose was given by intravenous injection. The duration of treatment was a single dose.
# Secondary Endpoint—Pharmacokinetic (PK) Parameters—Plasma concentrations of pyridoxal-5′-phosphate (P5P) were measured by a validated analytical method. Based on these concentration levels, AUCt, AUCinf, Cmax, Tmax, Kel, Thalf, Vd, CL, MRT and F were estimated.
# Statistical Methods—Descriptive statistics were calculated by treatments for the estimated pharmacokinetic parameters.
# [4] = Cumulative urinary excretion after single intravenous dose of P5P (Example Three); conditions: for Cumulative Urinary Excretion as Percent of the Dose: Percent (CV %)
# Protocol: P5P, pyridoxal, and 4-pyridoxic acid were evaluated in both plasma and urine over a 24 hour interval following either intravenous or oral dosing. The results are set out below in Tables 2 and 3. The urinary excretion of the unchanged P5P is negligible. Less than 0.5% of the administered dose was found as P5P in the urine (Table 10). Similarly, very little of the dose was excreted in urine as PAL, between approximately 2 to 3% of the total dose (Table 10). PA represented the largest amounts found in urine. Over a 24-hour interval, between 30% and 52% of the given dose was excreted in urine as 4-pyridoxic acid.
# [5] = 1 mg/kg, Group 1, P5P 1 mg/kg single iv, plasma P5P, mean
# [6] = 1 mg/kg, P5P 1 mg/kg single iv bolus, fasting
# [7] = 5 mg/kg, Group 2, P5P 5 mg/kg single iv, plasma P5P, mean
# [8] = 5 mg/kg, P5P 5 mg/kg single iv bolus, fasting
# [9] = 10 mg/kg, Group 3, P5P 10 mg/kg single iv, plasma P5P, mean
# [10] = 10 mg/kg, Group 4, dose 10 mg/kg, single iv, plasma P5P, mean
# [11] = 10 mg/kg, P5P 10 mg/kg single iv bolus, fasting
# [12] = 20 mg/kg, P5P 20 mg/kg single iv bolus, fasting
# [13] = ln(pK Parameter) = b0 + b1 * ln (Dose)
# [14] = ln(pK Parameter) = b0 + b1 * ln (Dose), single iv 1-20 mg/kg
smiles,measurement,setting,value
"Cc1ncc(COP(=O)(O)O)c(C=O)c1O [P5P, Pyridoxal 5′-phosphate, reference compound]",safety and tolerability,"[1]; single iv dose, doses up to 20 mg/kg",safe and well tolerated
same,common side effects observed,[1]; single iv doses 1-20 mg/kg,"nausea, vomiting and stomach upset"
same,clinically significant elevated white blood cells (WBC) in urine (pyuria),"[2]; 10 mg/kg iv once daily, 4 days",observed for two subjects
same,diarrhea or vomiting,"[2]; 10 mg/kg iv once daily, 4 days",No diarrhea or vomiting was reported
same,overall safety profile,"[2]; 10 mg/kg iv once daily, 4 days","No serious, severe, or significant adverse events; also recorded: well tolerated with no serious or lasting treatment related effects"
same,abnormal taste in the mouth,"[2]; 1 subject, 10 mg/kg iv once daily, 4 days",16.7%
same,dizziness (feels dizzy and dizziness),"[2]; 2 subjects, 10 mg/kg iv once daily, 4 days",33.3 % of subjects
same,nausea,"[2]; 3 subjects, 10 mg/kg iv once daily, 4 days",50.0 % of subjects
same,inflammation at injection site,"[2]; 3 subjects, judged unrelated to the study medication",50.0 % of subjects
same,total adverse events,"[2]; six subjects, 10 mg/kg iv once daily, 4 days",40
same,Kel,"[3]; Group 1, P5P 1 mg/kg single iv, plasma P5P, mean",0.14 h⁻¹
same,Kel,"[3]; Group 2, P5P 5 mg/kg single iv, plasma P5P, mean",0.118 h⁻¹
same,Kel,"[3]; Group 3, P5P 10 mg/kg single iv, plasma P5P, mean",0.12 h⁻¹
same,Kel,"[3]; Group 4, dose 10 mg/kg, single iv, plasma P5P, mean",0.14 h⁻¹
same,Cmax,[3]; [5],20 µg/mL
same,MRT,[3]; [5],3.73 h
same,Tmax,[3]; [5],8.4 min
same,Vd,[3]; [5],13 L
same,clearance,[3]; [5],29.3 mL/min
same,AUC,"[3]; 1 mg/kg, Group 1, P5P 1 mg/kg single iv, plasma P5P, mean, read-out: AUC (O-t)",38.4 µg·h/mL
same,AUC,"[3]; 1 mg/kg, Group 1, P5P 1 mg/kg single iv, plasma P5P, mean, read-out: AUC (o-inf)",39.1 µg·h/mL
same,half-life,"[3]; 1 mg/kg, Group 1, P5P 1 mg/kg single iv, plasma P5P, mean, read-out: T½ (converted)",5.11 h
same,Cmax,[3]; [6],20 ± 2.95 µg/mL
same,Tmax,[3]; [6],8.4 ± 4.2 min
same,half-life,"[3]; 1 mg/kg, P5P 1 mg/kg single iv bolus, fasting, read-out: T½ (converted)",5.11 ± 0.98 h
same,Cmax,[3]; [7],98.8 µg/mL
same,MRT,[3]; [7],3.52 h
same,Tmax,[3]; [7],8.4 min
same,Vd,[3]; [7],16.3 L
same,clearance,[3]; [7],32.1 mL/min
same,AUC,"[3]; 5 mg/kg, Group 2, P5P 5 mg/kg single iv, plasma P5P, mean, read-out: AUC (O-t)",173 µg·h/mL
same,AUC,"[3]; 5 mg/kg, Group 2, P5P 5 mg/kg single iv, plasma P5P, mean, read-out: AUC (o-inf)",176 µg·h/mL
same,half-life,"[3]; 5 mg/kg, Group 2, P5P 5 mg/kg single iv, plasma P5P, mean, read-out: T½ (converted)",5.89 h
same,Cmax,[3]; [8],98.8 ± 16 µg/mL
same,Tmax,[3]; [8],8.4 ± 4.2 min
same,half-life,"[3]; 5 mg/kg, P5P 5 mg/kg single iv bolus, fasting, read-out: T½ (converted)",5.89 ± 0.39 h
same,Cmax,[3]; [9],220 µg/mL
same,MRT,[3]; [9],3.11 h
same,Tmax,[3]; [9],6 min
same,Vd,[3]; [9],18 L
same,clearance,[3]; [9],35.2 mL/min
same,AUC,"[3]; 10 mg/kg, Group 3, P5P 10 mg/kg single iv, plasma P5P, mean, read-out: AUC (o-inf)",312 µg·h/mL
same,half-life,"[3]; 10 mg/kg, Group 3, P5P 10 mg/kg single iv, plasma P5P, mean, read-out: T½ (converted)",5.81 h
same,Cmax,[3]; [10],424 µg/mL
same,MRT,[3]; [10],3.32 h
same,Tmax,[3]; [10],9 min
same,Vd,[3]; [10],17.5 L
same,clearance,[3]; [10],39.8 mL/min
same,AUC,"[3]; 10 mg/kg, Group 4, dose 10 mg/kg, single iv, plasma P5P, mean, read-out: AUC (O-t)",577 µg·h/mL
same,AUC,"[3]; 10 mg/kg, Group 4, dose 10 mg/kg, single iv, plasma P5P, mean, read-out: AUC (o-inf)",585 µg·h/mL
same,half-life,"[3]; 10 mg/kg, Group 4, dose 10 mg/kg, single iv, plasma P5P, mean, read-out: T½ (converted)",5.03 h
same,Cmax,[3]; [11],220 ± 9.52 µg/mL
same,Tmax,[3]; [11],6 ± 1.8 min
same,half-life,"[3]; 10 mg/kg, P5P 10 mg/kg single iv bolus, fasting, read-out: T½ (converted)",5.87 ± 0.89 h
same,Cmax,[3]; [12],424 ± 96.9 µg/mL
same,Tmax,[3]; [12],9 ± 4.2 min
same,half-life,"[3]; 20 mg/kg, P5P 20 mg/kg single iv bolus, fasting, read-out: T½ (converted)",5.03 ± 0.72 h
same,half-life,"[3]; over all single iv doses of P5P (1-20 mg/kg), read-out: apparent elimination half-life (converted)",5 to 6 h
same,AUC(0-t),"[3]; P5P 1 mg/kg single iv bolus, fasting",38.4 ± 4.61 µg·h/mL
same,AUC(0-t),"[3]; P5P 5 mg/kg single iv bolus, fasting",173 ± 31.9 µg·h/mL
same,AUC(0-t),"[3]; P5P 10 mg/kg single iv bolus, fasting",308 ± 45.5 µg·h/mL
same,AUC(0-t),"[3]; P5P 20 mg/kg single iv bolus, fasting",577 ± 62.5 µg·h/mL
same,"Significance of b1, lnAUCi",[3]; [13],<0.0001
same,"Significance of b1, lnCl",[3]; [13],0.0128
same,"Significance of b1, lnCmax",[3]; [13],<0.0001
same,"Significance of b1, lnMRT",[3]; [13],0.1568
same,"Significance of b1, lnThalf",[3]; [13],0.6177
same,"Coef. for Dose (b1), lnAUCi",[3]; [14],0.90
same,"Coef. for Dose (b1), lnCl",[3]; [14],0.10
same,"Coef. for Dose (b1), lnCmax",[3]; [14],1.03
same,"Coef. for Dose (b1), lnMRT",[3]; [14],−0.05
same,"Coef. for Dose (b1), lnThalf",[3]; [14],0.02
same,"Intercept (b0), lnAUCi",[3]; [14],3.67
same,"Intercept (b0), lnCl",[3]; [14],7.44
same,"Intercept (b0), lnCmax",[3]; [14],2.98
same,"Intercept (b0), lnMRT",[3]; [14],1.29
same,"Intercept (b0), lnThalf",[3]; [14],1.67
same,"bioavailability, intravenous versus oral",[3]; single iv bolus vs single oral tablets,greater when intravenously administered rather than orally administered
same,Cumulative Urinary Excretion as Percent of the Dose,"[4]; Group 1, dose of P5P 1 mg/1 kg, single iv",0.06 (161) Percent
same,Cumulative Urinary Excretion as Percent of the Dose,"[4]; Group 2, P5P 5 mg/kg single iv",0.08 (96) Percent
same,Cumulative Urinary Excretion as Percent of the Dose,"[4]; Group 3, P5P 10 mg/kg single iv",0.02 (167) Percent
same,Cumulative Urinary Excretion as Percent of the Dose,"[4]; Group 4, dose of P5P, single iv",0.26 (73) Percent
same,part of the administered dose found in urine,"[4]; single iv P5P 1-20 mg/kg, 24-hour interval",Less than 0.5%
